Results published in article PMC6382392 (Journal of medicinal chemistry, 2018).
pIC50: −log10 of the molar value. Blank lines part the entries; values can stand above or below the compound they belong to.

What was measured:
[1] = system: PC43–10 CHO cells expressing human RFC; test: Growth inhibition; details: CHO subline expressing human RFC; drug up to 1000 nM, up to 96 h; mean (SE)
[2] = system: KB human tumor cells (RFC/FRα/PCFT); test: Growth inhibition of KB human tumor cells, with and without 200 nM folic acid; details: without folic acid; mean (SE)
[3] = system: RT16 CHO cells expressing human FRα
FRβ = FRβ (Homo sapiens, UniProt P14207); test: Competitive [3H]folic acid binding to FRβ in D4 CHO cells; details: 50 nM [3H]folic acid, 15 min, 0 °C
Chain of FRβ (P14207 17-255): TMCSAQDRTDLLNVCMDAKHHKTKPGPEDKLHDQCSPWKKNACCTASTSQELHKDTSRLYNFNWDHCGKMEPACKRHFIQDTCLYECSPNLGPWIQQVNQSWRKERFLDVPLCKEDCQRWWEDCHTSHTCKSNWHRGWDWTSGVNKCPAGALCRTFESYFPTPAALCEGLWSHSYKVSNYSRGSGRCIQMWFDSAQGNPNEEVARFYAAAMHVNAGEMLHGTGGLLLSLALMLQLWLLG

FRα = FRα (Homo sapiens, UniProt P15328); test: Competitive [3H]folic acid binding to FRα in RT16 CHO cells; details: 50 nM [3H]folic acid, 15 min, 0 °C
Chain of FRα (P15328 25-257): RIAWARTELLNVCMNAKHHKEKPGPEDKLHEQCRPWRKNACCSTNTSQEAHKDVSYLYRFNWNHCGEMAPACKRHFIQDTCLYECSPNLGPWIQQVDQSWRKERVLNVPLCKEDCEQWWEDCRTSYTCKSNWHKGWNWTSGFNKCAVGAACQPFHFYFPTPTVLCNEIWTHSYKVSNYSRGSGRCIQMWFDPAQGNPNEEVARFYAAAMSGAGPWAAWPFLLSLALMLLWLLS

[4] = system: D4 CHO cells expressing human FRβ; details: for pIC50: Homo sapiens, CHO, read-out: IC50 growth inhibition, FRβ, D4; for IC50 growth inhibition, FRβ, D4: without folic acid, mean (SE)
PCFT = target: T1, PCFT (Homo sapiens, UniProt Q96NT5); test: Competitive inhibition of [3H]MTX uptake by PCFT in R2/PCFT4 cells; type: cell-based
T1 sequence (Q96NT5 1-459): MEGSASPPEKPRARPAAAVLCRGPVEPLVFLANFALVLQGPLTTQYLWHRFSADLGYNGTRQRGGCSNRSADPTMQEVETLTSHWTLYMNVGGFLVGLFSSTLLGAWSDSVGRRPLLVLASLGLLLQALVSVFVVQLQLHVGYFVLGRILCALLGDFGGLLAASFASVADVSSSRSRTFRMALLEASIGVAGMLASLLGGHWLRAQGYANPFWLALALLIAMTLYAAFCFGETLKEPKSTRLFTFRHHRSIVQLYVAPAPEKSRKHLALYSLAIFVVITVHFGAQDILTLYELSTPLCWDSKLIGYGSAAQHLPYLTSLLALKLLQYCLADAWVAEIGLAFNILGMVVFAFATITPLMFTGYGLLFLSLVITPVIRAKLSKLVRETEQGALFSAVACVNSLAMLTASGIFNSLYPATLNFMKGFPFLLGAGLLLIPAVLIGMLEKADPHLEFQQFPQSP

[5] = system: NCI-IGROV1 EOC xenografts; test: In vivo efficacy trial, subcutaneous NCI-IGROV1 EOC xenografts in SCID mice; details: for Antitumor activity toward NCI-IGROV1 tumors in vivo (in words): SCID mice, folate-deficient diet

Structure (SMILES): Nc1nc2[nH]c(CCCCc3ccc(C(=O)N[C@@H](CCC(=O)O)C(=O)O)cc3)cc2c(=O)[nH]1 [Compound 1, reference compound]
- IC50 growth inhibition, RFC, PC43–10 [1]: no activity

- IC50 growth inhibition, RFC/FRα/PCFT, KB [2]: inactive
Structure (SMILES): Nc1nc2[nH]c(CCC#Cc3ccc(C(=O)N[C@@H](CCC(=O)O)C(=O)O)nc3)cc2c(=O)[nH]1 [Compound 9, (5-(4-(2-Amino-4-oxo-4,7-dihydro-3H-pyrrolo[2,3-d]pyrimidin-6-yl)but-1-yn-1-yl)picolinoyl)-L-glutamic Acid]
- Fold less active than 6, FRα-expressing CHO cells [3]: ~ 4 fold

- Relative binding affinity to FRβ (vs folic acid) (FRβ): sharply reduced
- Relative binding affinity to FRα (vs folic acid) (FRα): sharply reduced
Structure (SMILES): Nc1nc2[nH]c(CCCCc3cccc(C(=O)N[C@@H](CCC(=O)O)C(=O)O)n3)cc2c(=O)[nH]1 [Compound 7, (6-(4-(2-Amino-4-oxo-4,7-dihydro-3H-pyrrolo[2,3-d]pyrimidin-6-yl)butyl)picolinoyl)-L-glutamic Acid]
- pIC50 [4]: < 6.00
- IC50 growth inhibition, FRβ, D4 [4]: inactive

- Effect on [3H]MTX uptake by PCFT (PCFT; pH 5.5 and pH 6.8, 1 or 10 μM): no effect
Structure (SMILES): CN(Cc1cnc2nc(N)nc(N)c2n1)c1ccc(C(=O)N[C@@H](CCCNC(=O)c2ccccc2C(=O)O)C(=O)O)cc1 [PT523, Nα-(4-amino-4-deoxypteroyl)-Nδ-hemiphthaloyl-L-ornithine]

Structure (SMILES): Nc1nc2[nH]c(CCC#Cc3cccc(C(=O)N[C@@H](CCC(=O)O)C(=O)O)n3)cc2c(=O)[nH]1 [Compound 10, (6-(4-(2-Amino-4-oxo-4,7-dihydro-3H-pyrrolo[2,3-d]pyrimidin-6-yl)but-1-yn-1-yl)picolinoyl)-L-glutamic Acid]
- pIC50 [4]: < 6.00
- IC50 growth inhibition, FRβ, D4 [4]: inactive
- pIC50 ([3]; Homo sapiens, RT16, read-out: IC50 growth inhibition, FRα, RT16): < 6.00
- IC50 growth inhibition, FRα, RT16 ([3]; without folic acid, mean (SE)): no activity

Structure (SMILES): Nc1nc2[nH]cc(CCc3ccc(C(=O)N[C@@H](CCC(=O)O)C(=O)O)cc3)c2c(=O)[nH]1 [PMX, N-{4-[2-(2-amino-3,4-dihydro-4-oxo-7H-pyrrolo-[2,3-d]pyrimidin-5-yl)ethyl]benzoyl}-L-glutamic acid, reference compound]
- inhibition at 10 µM (PCFT; R2/PCFT4, pH 5.5, read-out: Inhibition of [3H]MTX transport by PCFT): ≥ 90%
- Antitumor activity toward NCI-IGROV1 tumors in vivo (in words) [5]: inactive

Structure (SMILES): Nc1nc2[nH]c(CCCCc3ccc(C(=O)N[C@@H](CCC(=O)O)C(=O)O)nc3)cc2c(=O)[nH]1 [Compound 6, (5-(4-(2-Amino-4-oxo-4,7-dihydro-3H-pyrrolo[2,3-d]pyrimidin-6-yl)butyl)picolinoyl)-L-glutamic Acid]
- Antitumor activity toward NCI-IGROV1 tumors in vivo (in words) [5]: excellent activity
- Antitumor activity, standard (high folate) diet ([5]; mice on standard folate-replete diet): abolished
- IC50 growth inhibition, RFC, PC43–10 [1]: no activity
